Experimental data published in ChEMBL document CHEMBL1131148, “Synthesis and modeling studies of a potent conformationally rigid muscarinic agonist: 1-azabicyclo[2.2.1]heptanespirofuranone” (J Med Chem, 1998).

Experiments:
[1] = biological target: Muscarinic acetylcholine receptor; experiment: Binding affinity against Muscarinic acetylcholine receptor using [3H]-OXO-M as the radioligand.; type: protein assay, Rattus norvegicus
[2] = species: Rattus norvegicus; experiment: Stimulation of phosphatidyl inositol(PI) hydrolysis as compared to that of carbachol, was determined in rat hippocampal slices; type: functional, Hippocampus

Compound	Ki [1] [nM]	Intrinsic activity [2] [%]
CC1OC2(CCN(C)CC2)CC1=O (stereo not given)	6.7	51
C[C@@H]1O[C@@]2(CC1=O)CN1CCC2C1 (stereo not given in full)	0.8	81
CN1O[C@@]2(CC1=O)CN1CCC2C1 (stereo not given in full)	4	22.6
C[C@H]1OCC2(CN3CCC2C3)O1 (stereo not given in full)	14	75
CC[C@H]1O[C@@]2(CC1=O)CN1CCC2C1 (stereo not given in full)	3.7	39
CC1O[C@@]2(CC1=O)CN1CCC2CC1 (stereo not given in full)		9
CC[C@@H]1O[C@@]2(CC1=O)CN1CCC2C1 (stereo not given in full)	0.4	47
CCC[C@H]1O[C@@]2(CC1=O)CN1CCC2C1 (stereo not given in full)	2	0
C[N+](C)(C)CCOC(N)=O.[Cl-] [CARBACHOL]		100
CCC[C@@H]1O[C@@]2(CC1=O)CN1CCC2C1 (stereo not given in full)	2	0
Cc1noc(C2CN3CCC2C3)n1 (stereo not given)	0.2	106
